How the values were obtained:
Assay in all cases: competitive isoTOP-ABPP
Format in all cases: binding
[1] = target: T1, NUDT2 Bis(5-nucleosyl)-tetraphosphatase (Homo sapiens, UniProt P50583); parameters: key to isoTOP-ABPP reactivity ratio at lysine P50583_K89: R = MS1 peak area ratio, DMSO (heavy) / compound-treated (light); details: for isoTOP-ABPP ratio, lysine P50583_K89: possible other lysine P50583_K87; for isoTOP-ABPP reactivity ratio at lysine P50583_K89 / isoTOP-ABPP ratio (R) at liganded lysine P50583_K89: 50 uM, in vitro; for isoTOP-ABPP reactivity ratio at lysine P50583_K89: 231 sol; for isoTOP-ABPP ratio (R) at liganded lysine P50583_K89: sol, 231
T1 construct: isoTOP-ABPP experiments performed in cell lysates (in vitro); endogenous in cells
Experimental: (§1) In vitro covalent fragment treatment for isoTOP-ABPP. All compounds were made up as solutions in DMSO (100×) and were used at a final concentration of 50 μM for activated esters and 100 μM for guanidinylating agents. For each profiling sample, 0.5 ml of lysate was treated with 5 μl of the 100× compound stock solution or 5 μl of DMSO. Samples were treated with activated esters for
(§2) STP-alkyne labeling and click chemistry. For concentration-dependent reactivity measurements by isoTOP-ABPP, 0.5 ml proteome aliquots were treated at ambient temperature with 1 mM STP-alkyne 1 (5 μl of 100 mM stock in DMSO) and 0.1 mM STP alkyne 1 (5 μl of 10 mM stock in DMSO), respectively. For competitive isoTOP-ABPP, after in vitro fragment treatment (detailed above), the samples were labeled for 1 h at ambient temperature with 0.1 mM STP-alkyne 1 (5 μl of 10 mM stock in DMSO). Samples were conjugated by copper-mediated azide-alkyne cycloaddition (CuAAC) to either the light (1 mM STP-alkyne or fragment treated) or heavy (0.1 mM STP-alkyne or DMSO treated) TEV tags (10 μl of 5 mM stocks in DMSO, final concentration=100 μM) using tris(2-carboxyethyl)phosphine hydrochloride
(§3) R value calculation and processing. The ratios of light and heavy MS1 peaks for each unique peptide were quantified with a CIMAGE software using default parameters (3 MS1 acquisitions per peak and signal to noise threshold set to 2.5). For reactivity measurements by isoTOP-ABPP, the R value was calculated from the ratio of MS1 peak areas, comparing the 1 mM STP alkyne sample (light TEV tag) with the 0.1 mM STP alkyne sample (heavy TEV tag). For competitive isoTOP-ABPP, the R value was calculated from the ratio of MS1 peak areas, comparing the DMSO treated sample (heavy TEV tag) with the compound treated sample (light TEV tag). […] Ratios for unique peptide entries are calculated for each experiment; overlapping peptides with the same modified lysine (for example, different charge states, MudPIT chromatographic steps or tryptic termini) are grouped together and the median ratio is reported as the final ratio (R). The peptide ratios reported by CIMAGE were further filtered to ensure the removal or correction of low-quality ratios in each individual data set. The quality filters applied were the following: removal of half tryptic peptides; for ratios with high standard deviations from the median (90% of the median or above) the lowest ratio was taken instead of the median; removal of peptides with R=20 and only a single MS2 event triggered during the elution of the parent ion; manual annotation of all the peptides with ratios of 20, removing any peptides with low quality elution profiles that remained after the previous curation steps (only done for competitive isoTOP-ABPP).
(§4) Cross-data processing for fragment screening. For compound treated samples, biological replicates of the same condition were averaged, if the standard deviation was below 60% of the mean; otherwise, for lysines with at least one R value <4 for a particular compound, the lowest value of the ratio set was taken. For lysines, where all R values for a particular compound were ≥4, the average was reported. For peptides containing several possible modified lysines, the lysine with the highest number of quantification events was used for analysis and the remaining, redundant peptides were reported as alternative modification sites. Peptides included in the aggregate dataset (those used for further bioinformatics and statistical analyses) were required to have been quantified in 2 experiments for competitive isoTOP-ABPP. Lysines were categorized as liganded, if they had at least one ratio R≥4 (hit fragments). For liganded lysines with R=20 for all liganding events, lysines were required to have been quantified with R=20 in two separate experiments and were further required to have been quantified with R<20 in one additional experiment.

[2] = target: T2, TPMT Thiopurine S-methyltransferase (Homo sapiens, UniProt P51580); parameters: key to isoTOP-ABPP reactivity ratio at lysine P51580_K32: R = MS1 peak area ratio, DMSO (heavy) / compound-treated (light); details: for isoTOP-ABPP reactivity ratio at lysine P51580_K32 / isoTOP-ABPP ratio (R) at liganded lysine P51580_K32: 50 uM, in vitro; for isoTOP-ABPP reactivity ratio at lysine P51580_K32: 231 sol; for isoTOP-ABPP ratio (R) at liganded lysine P51580_K32: sol, 231
T2 construct: isoTOP-ABPP experiments performed in cell lysates (in vitro); endogenous in cells; host or cells: soluble proteome of human cancer cell lines (MDA-MB-231; Ramos and Jurkat also prepared)
T2 sequence (P51580 1-245): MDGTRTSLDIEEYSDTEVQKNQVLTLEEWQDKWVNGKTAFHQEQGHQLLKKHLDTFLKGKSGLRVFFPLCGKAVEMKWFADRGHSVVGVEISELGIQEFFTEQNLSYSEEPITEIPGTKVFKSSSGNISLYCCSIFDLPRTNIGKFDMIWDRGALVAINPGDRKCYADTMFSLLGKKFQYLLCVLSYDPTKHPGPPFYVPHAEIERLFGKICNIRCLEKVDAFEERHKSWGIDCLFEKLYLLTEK
Experimental: as §1, §2, §3, §4

[3] = target: T3, ACBD3 Golgi resident protein GCP60 (Homo sapiens, UniProt Q9H3P7); parameters: key to isoTOP-ABPP reactivity ratio at lysine Q9H3P7_K117: R = MS1 peak area ratio, DMSO (heavy) / compound-treated (light); details: for isoTOP-ABPP reactivity ratio at lysine Q9H3P7_K117 / isoTOP-ABPP ratio (R) at liganded lysine Q9H3P7_K117: 50 uM, in vitro; for isoTOP-ABPP reactivity ratio at lysine Q9H3P7_K117: 231 sol; for isoTOP-ABPP ratio (R) at liganded lysine Q9H3P7_K117: sol, 231
T3 construct: isoTOP-ABPP experiments performed in cell lysates (in vitro); endogenous in cells; host or cells: soluble proteome of human cancer cell lines (MDA-MB-231; Ramos and Jurkat also prepared)
T3 sequence (Q9H3P7 1-528): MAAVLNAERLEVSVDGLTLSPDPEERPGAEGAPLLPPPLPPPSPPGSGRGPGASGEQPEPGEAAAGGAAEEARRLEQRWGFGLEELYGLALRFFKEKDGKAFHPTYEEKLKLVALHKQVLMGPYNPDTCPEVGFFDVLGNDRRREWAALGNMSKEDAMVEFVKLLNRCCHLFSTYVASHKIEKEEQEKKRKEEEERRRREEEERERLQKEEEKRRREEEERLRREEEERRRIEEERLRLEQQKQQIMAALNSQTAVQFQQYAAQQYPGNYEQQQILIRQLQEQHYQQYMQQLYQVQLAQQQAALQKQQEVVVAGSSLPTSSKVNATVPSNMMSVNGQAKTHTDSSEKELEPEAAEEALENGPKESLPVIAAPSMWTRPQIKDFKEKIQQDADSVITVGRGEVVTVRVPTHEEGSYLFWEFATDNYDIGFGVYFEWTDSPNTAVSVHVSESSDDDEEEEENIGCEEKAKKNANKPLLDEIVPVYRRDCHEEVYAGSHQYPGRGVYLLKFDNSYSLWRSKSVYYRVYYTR
Experimental: as §1, §2, §3, §4

T1 sequence (P50583 whole entry): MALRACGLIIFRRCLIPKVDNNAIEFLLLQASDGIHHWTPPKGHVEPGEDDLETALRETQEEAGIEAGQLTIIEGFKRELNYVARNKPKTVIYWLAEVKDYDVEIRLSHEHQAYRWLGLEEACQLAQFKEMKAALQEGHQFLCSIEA

Row | isoTOP-ABPP ratio, lysine P50583_K89 ([1]; 50 uM_231_sol_in vitro) | isoTOP-ABPP ratio, lysine P51580_K32 ([2]; 50 uM_231_sol_in vitro) | isoTOP-ABPP ratio, lysine Q9H3P7_K117 ([3]; 50 uM_231_sol_in vitro) | SMILES | isoTOP-ABPP ratio (R) at liganded lysine P50583_K89 [1] | isoTOP-ABPP ratio (R) at liganded lysine P51580_K32 [2] | isoTOP-ABPP ratio (R) at liganded lysine Q9H3P7_K117 [3] | also measured
1 | 0.9 | 0.8 | 0.9 | NC(=O)c1cc(C(F)(F)F)cc(C(F)(F)F)c1 [fragment 51, reference compound] |  |  |  | 
2 | 1.0 | 9.5 | 1.0 | O=C(Oc1c(F)c(F)c(C(F)(F)F)c(F)c1F)c1cc(C(F)(F)F)cc(C(F)(F)F)c1 [fragment 47, 2,3,5,6-Tetrafluoro-4-(trifluoromethyl)phenyl 3,5-bis(trifluoromethyl)benzoate] |  |  |  | 

Further lines, the compound ahead of its results:

Row | SMILES | isoTOP-ABPP ratio, lysine P50583_K89 ([1]; 50 uM_231_sol_in vitro) | isoTOP-ABPP ratio, lysine P51580_K32 ([2]; 50 uM_231_sol_in vitro) | isoTOP-ABPP ratio, lysine Q9H3P7_K117 ([3]; 50 uM_231_sol_in vitro) | isoTOP-ABPP ratio (R) at liganded lysine P50583_K89 [1] | isoTOP-ABPP ratio (R) at liganded lysine P51580_K32 [2] | isoTOP-ABPP ratio (R) at liganded lysine Q9H3P7_K117 [3] | also measured
3 | N#Cc1ccc(C(=O)Oc2ccc([N+](=O)[O-])cc2[N+](=O)[O-])cc1 [fragment 44, 2,4-Dinitrophenyl 4-cyanobenzoate] | 0.9 | 1.4 | 0.8 |  |  |  | 
4 | O=C(CCc1coc2cc(F)ccc2c1=O)Oc1c(F)c(F)c(F)c(F)c1F [fragment 26, Pentafluorophenyl 3-(7-fluoro-4-oxo-4H-chromen-3-yl)propanoate] |  |  |  |  |  |  | isoTOP-ABPP reactivity ratio at lysine P50583_K89 [1]: 0.9; isoTOP-ABPP reactivity ratio at lysine P51580_K32 [2]: 1.0; isoTOP-ABPP reactivity ratio at lysine Q9H3P7_K117 [3]: 1.8
5 | O=C(Oc1ccc([N+](=O)[O-])cc1[N+](=O)[O-])C1CCN(C(=O)OCc2ccccc2)CC1 [fragment 34, 1-Benzyl 4-(2,4-dinitrophenyl) piperidine-1,4-dicarboxylate] |  |  |  | 1.0 | 1.6 | 1.1 | 
6 | O=C(CC12CC3CC(CC(C3)C1)C2)Oc1ccc([N+](=O)[O-])cc1[N+](=O)[O-] [fragment 38, 2,4-Dinitrophenyl 2-(adamantan-1-yl)acetate] |  |  |  | 0.9 | 1.1 | 1.0 | 
7 | CC(C)(C)OC(=O)N=C(NC(=O)OC(C)(C)C)n1cccn1 [fragment 50, reference compound] |  |  |  |  |  |  | isoTOP-ABPP ratio, lysine P50583_K89 ([1]; 100 uM_231_sol_in vitro): 20.0; reaction with K89 by isoTOP-ABPP ([1]; NUDT2 K89): preferentially reacting; isoTOP-ABPP ratio, lysine P51580_K32 ([2]; 100 uM_231_sol_in vitro): 11.7; isoTOP-ABPP ratio, lysine Q9H3P7_K117 ([3]; 100 uM_231_sol_in vitro): 14.9
8 | O=C(CCc1coc2cc(F)ccc2c1=O)Oc1ccc([N+](=O)[O-])cc1[N+](=O)[O-] [fragment 36, 2,4-Dinitrophenyl 3-(7-fluoro-4-oxo-4H-chromen-3-yl)propanoate] |  |  |  | 0.9 | 3.4 | 1.4 | 
9 | CCn1cc(C(=O)Oc2c(F)c(F)c(F)c(F)c2F)c(=O)c2ccc(C)nc21 [fragment 28, Pentafluorophenyl 1-ethyl-7-methyl-4-oxo-1,4-dihydro-1,8-naphthyridine-3-carboxylate] |  |  |  |  |  |  | isoTOP-ABPP reactivity ratio at lysine P50583_K89 [1]: 1.0; isoTOP-ABPP reactivity ratio at lysine P51580_K32 [2]: 1.1; isoTOP-ABPP reactivity ratio at lysine Q9H3P7_K117 [3]: 1.1

— patent US20210255193A1, “LYSINE REACTIVE PROBES AND USES THEREOF” (The Scripps Research Institute, priority 2017, published 2021)
